Like-named read-outs stand apart in the source and are kept apart here.
Key:
Human rhinovirus 1B = assay: Picornavirus assay (CPE, CellTiter-Glo, HeLa-OHIO cells); assay type: cell-based; settings: Rhinovirus A, 96 h
subgenomic HCV replicon = assay: HCV replicon assay (Huh-7, luciferase reporter); assay type: cell-based; settings: Hepatitis C virus
[1] = tested on: Dengue virus type 2 strain New Guinea C (NG-C) or Dengue virus type 4 strain H241; assay: Dengue virus cell-based assay (Huh-7.5 cells, CellTiter-Glo); settings: Dengue virus, Huh7.5
Description: The Dengue virus type 2 strain New Guinea C (NG-C) and the Dengue virus type 4 strain H241 were purchased from ATCC (Manassas, Va.; item numbers VR-1584 and VR-1490, respectively). 24 h prior to dosing, Huh-7.5 cells were plated in 96 well plates at a density of 1.5×10^5/mL in DMEM medium supplemented with 10% fetal bovine serum, 1% HEPES buffer, 1% Penicillin/Streptomycin and 1% non-essential amino acids (all Mediatech, Manassas, Va.). At the day of infection, serially diluted compounds were added to cells and incubated for 4 h. After the end of the 4 h pre-incubation period, cells were infected with either Dengue virus type 2 NG-C or Dengue virus type 4H241. The virus inoculum was selected to cause 80-90% cytopathic effect in five to six days. Infected cells were incubated for five (NG-C) to six (H241) days at 37° C., 5% CO2. To develop the assay, 100 μL media was replaced with 100 μl CellTiter-Glo® reagent (Promega, Madison, Wis.), and incubated for 10 mins at RT. Luminescence was measured on a Victor X3 multi-label plate reader. Potential compound cytotoxicity of was determined using uninfected parallel cultures.

HRV-89 = assay: Human rhinovirus strain panel assay, HRV-89; assay type: cell-based; settings: Rhinovirus A, HRV89
[2] = Cytotoxicity in HeLa OHIO host cell line; assay type: cell-based; settings: human, HeLa-OHIO cells, n>5
[3] = tested on: human rhinovirus 16 (HRV-16), coxasackie B3 (CVB3), enterovirus-68 (EV-68) and enterovirus-71 (EV-71); assay: Enterovirus assay (four viruses, CellTiter Glo); assay type: cell-based
[4] = Human rhinovirus 1B, HeLa-OHIO cells, 4 d at 33° C., read-out: EC50

Compound	EC50 (Human rhinovirus 1B) [nM]	EC50 (subgenomic HCV replicon; Huh-7, 72 h) [nM]	IC50 [1] [nM]	EC50 (Human rhinovirus 1B; [4]) [nM]	CC50 [2] [nM]	also measured
C[C@H](NP(=O)(OC[C@@]1(F)O[C@@H](n2cnc3c(=O)[nH]c(N)nc32)[C@](C)(O)[C@@H]1F)Oc1ccccc1)C(=O)OC1CCCCC1 (stereo partly shown) [Compound 14]	10000 to 100000	10000 to 100000	< 10000	–	–	–
CC(C)OC(=O)OCOP(=O)(OCOC(=O)OC(C)C)OC[C@@]1(CF)O[C@@H](n2ccc(=O)[nH]c2=O)[C@](C)(O)[C@@H]1O [Compound 44]	–	–	–	< 1000	> 100000	EC50 (HRV-89; HRV-89, HeLa-OHIO cells, read-out: EC50): 1000 to 2000 nM; EC50 ([3]; HRV-16, CVB3, EV-68 (HeLa-OHIO cells) and EV-71 (RD cells), read-out: EC50 ranging (across four viruses)): 380 to 2520 nM; EC50 ([3]; mean over HRV-16, CVB3, EV-68 and EV-71, read-out: EC50 mean (across four viruses)): 1390 ± 1140 nM; EC50 (subgenomic HCV replicon; Huh-7 HCV replicon cells, luciferase, 72 hours, read-out: EC50): < 1000 nM
CC(C)OC(=O)OCOP(=O)(OCOC(=O)OC(C)C)OC[C@@]1(CF)O[C@@H](n2ccc(=O)[nH]c2=O)[C@](C)(O)[C@@H]1OC(=O)C(N)C(C)C (stereo partly shown) [Compound 160]	< 1000	–	–	–	> 100000	EC50 (HRV-89): 1000 to 2000 nM
CCOc1nc(N)nc2c1ncn2[C@@H]1O[C@](F)(CO[P@@](=O)(N[C@@H](C)C(=O)OC2CCCCC2)Oc2ccccc2)[C@@H](O)[C@@]1(C)F [Compound 26]	1000 to 10000	–	< 1000	–	–	–
CCOc1nc(N)nc2c1ncn2[C@@H]1O[C@](F)(COP(=O)(N[C@@H](C)C(=O)OC2CCCCC2)Oc2ccccc2)[C@@H](F)[C@@]1(C)O (stereo partly shown) [Compound 16]	1000 to 10000	1000 to 10000	< 10000	–	–	–
CCOc1nc(N)nc2c1ncn2[C@@H]1O[C@](F)(COP(=O)(OCOC(=O)OC(C)C)OCOC(=O)OC(C)C)[C@@H](O)[C@@]1(C)O [Compound 55]	–	–	< 1000	< 1000	–	–

From patent publication US10370401B2, “Substituted nucleosides, nucleotides and analogs thereof” (Alios BioPharma, Inc., priority 2013, dated 2019)
